Measured values taken from ChEMBL document CHEMBL1144577, “1,5-Biaryl pyrrole derivatives as EP1 receptor antagonists. Structure-activity relationships of 6-substituted and 5,6-disubstituted benzoic acid derivatives” (Bioorg Med Chem Lett, 2007).
Values belong to the compound of their own block, whether it stands above or below them.

How the values were obtained:
[1] = Drug level in brain of rat FCA model of inflammatory pain at 30 mg/kg, po after 4 hrs; format: ADME, organism-based; set-up: dose 30 mg/kg, route oral; conditions: read-out: Drug uptake
[2] = Bioavailability in rat at 3 mg/kg, po; format: ADME, organism-based; conditions: in vivo
[3] = Drug level in blood of rat FCA model of inflammatory pain at 30 mg/kg, po after 4 hrs; format: ADME, organism-based; set-up: dose 30 mg/kg, route oral; conditions: read-out: Drug uptake
[4] = Ratio of drug level in brain to blood in rat FCA model of inflammatory pain at 30 mg/kg, po after 6 hrs; format: ADME, organism-based; set-up: dose 30 mg/kg, route oral; conditions: brain and blood
[5] = Drug level in blood of rat FCA model of inflammatory pain at 30 mg/kg, po after 0.25 hrs; format: ADME, organism-based; set-up: dose 30 mg/kg, route oral; conditions: read-out: Drug uptake
Rattus norvegicus [6] = assay: Reversal of hypersensitivity in po dosed FCA rat model of inflammatory pain; format: functional
[7] = Ratio of drug level in brain to blood in rat FCA model of inflammatory pain at 30 mg/kg, po after 2 hrs; format: ADME, organism-based; set-up: dose 30 mg/kg, route oral; conditions: brain and blood
[8] = Half life in rat at 1 mg/kg, iv or 3 mg/kg, po; format: ADME, organism-based; conditions: in vivo
[9] = Drug level in blood of rat FCA model of inflammatory pain at 30 mg/kg, po after 1 hr; format: ADME, organism-based; set-up: dose 30 mg/kg, route oral; conditions: read-out: Drug uptake
[10] = Drug level in brain of rat FCA model of inflammatory pain at 30 mg/kg, po after 6 hrs; format: ADME, organism-based; set-up: dose 30 mg/kg, route oral; conditions: read-out: Drug uptake
Prostacyclin receptor = Prostacyclin receptor (Homo sapiens, UniProt P43119); assay: Inhibition of human recombinant IP receptor expressed in CHO cells […] by calcium mobilisation assay; format: functional, cell-based
[11] = Drug level in brain of rat FCA model of inflammatory pain at 30 mg/kg, po after 8 hrs; format: ADME, organism-based; set-up: dose 30 mg/kg, route oral; conditions: read-out: Drug uptake
[12] = biological target: Prostaglandin F2-alpha receptor (Homo sapiens, UniProt P43088); assay: Inhibition of human recombinant FP receptor expressed in CHO cells by calcium mobilisation assay; format: functional, cell-based
[13] = biological target: T1, Prostaglandin E2 receptor EP3 subtype (Homo sapiens, UniProt P43115); assay: Inhibition of human recombinant EP3 receptor expressed in CHO cells by calcium mobilisation assay; format: functional, cell-based
T1 sequence (P43115 whole entry): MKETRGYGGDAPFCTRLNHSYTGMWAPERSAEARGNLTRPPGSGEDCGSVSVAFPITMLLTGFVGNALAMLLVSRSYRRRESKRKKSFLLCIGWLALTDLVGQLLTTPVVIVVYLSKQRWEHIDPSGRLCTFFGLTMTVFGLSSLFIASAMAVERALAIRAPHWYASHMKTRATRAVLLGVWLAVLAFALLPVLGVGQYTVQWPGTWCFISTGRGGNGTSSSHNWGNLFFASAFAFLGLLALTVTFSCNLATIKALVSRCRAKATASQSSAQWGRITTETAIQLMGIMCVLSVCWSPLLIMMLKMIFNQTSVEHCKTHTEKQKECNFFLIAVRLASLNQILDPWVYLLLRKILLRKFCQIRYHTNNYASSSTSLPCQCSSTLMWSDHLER

Rattus norvegicus [14] = assay: Normalized AUC (0 to t) in rat at 3 mg/kg, po; format: ADME, organism-based; set-up: dose 3 mg/kg, route oral; conditions: in vivo
[15] = Tmax in rat at 3 mg/kg, po; format: ADME, organism-based; set-up: dose 3 mg/kg, route oral; conditions: in vivo
[16] = Blood clearance in rat at 1 mg/kg, iv or 3 mg/kg, po; format: ADME, organism-based
[17] = Drug level in brain of rat FCA model of inflammatory pain at 30 mg/kg, po after 1 hr; format: ADME, organism-based; set-up: dose 30 mg/kg, route oral; conditions: read-out: Drug uptake
[18] = Drug level in brain of rat FCA model of inflammatory pain at 30 mg/kg, po after 24 hrs; format: ADME, organism-based; set-up: dose 30 mg/kg, route oral; conditions: read-out: Drug uptake
[19] = Drug level in blood of rat FCA model of inflammatory pain at 30 mg/kg, po after 8 hrs; format: ADME, organism-based; set-up: dose 30 mg/kg, route oral; conditions: read-out: Drug uptake
Thromboxane A2 receptor = biological target: T2, Thromboxane A2 receptor (Homo sapiens, UniProt P21731); assay: Inhibition of human recombinant TP receptor expressed in CHO cells by calcium mobilisation assay; format: functional, cell-based
T2 sequence (P21731 whole entry): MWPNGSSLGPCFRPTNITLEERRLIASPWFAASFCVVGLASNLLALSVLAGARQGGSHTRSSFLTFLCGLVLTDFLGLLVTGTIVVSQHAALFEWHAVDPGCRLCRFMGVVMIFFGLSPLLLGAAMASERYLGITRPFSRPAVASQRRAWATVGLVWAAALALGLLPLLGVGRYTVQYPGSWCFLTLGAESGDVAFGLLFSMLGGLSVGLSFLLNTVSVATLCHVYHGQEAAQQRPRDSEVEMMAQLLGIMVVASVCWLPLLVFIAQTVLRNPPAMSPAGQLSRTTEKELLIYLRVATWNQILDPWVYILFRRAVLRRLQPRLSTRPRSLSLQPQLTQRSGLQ

[20] = Drug level in brain of rat FCA model of inflammatory pain at 30 mg/kg, po after 0.25 hrs; format: ADME, organism-based; set-up: dose 30 mg/kg, route oral; conditions: read-out: Drug uptake
Liver microsomes = assay: Intrinsic clearance in human liver microsomes; format: ADME, Microsome
[21] = Intrinsic clearance in dog liver microsomes; format: ADME, Canis lupus familiaris, Microsome
Rattus norvegicus [22] = assay: Reversal of hypersensitivity in FCA rat model of inflammatory pain at 5 mg/kg, po; format: functional
[23] = Ratio of drug level in brain to blood in rat FCA model of inflammatory pain at 30 mg/kg, po after 1 hr; format: ADME, organism-based; set-up: dose 30 mg/kg, route oral; conditions: brain and blood
[24] = biological target: T3, Prostaglandin E2 receptor EP1 subtype (Homo sapiens, UniProt P34995); assay: Displacement of [3H]PGE2 from human recombinant EP1 receptor expressed in CHOK1 cell membrane; format: cell membranes, CHO-K1
T3 sequence (P34995 whole entry): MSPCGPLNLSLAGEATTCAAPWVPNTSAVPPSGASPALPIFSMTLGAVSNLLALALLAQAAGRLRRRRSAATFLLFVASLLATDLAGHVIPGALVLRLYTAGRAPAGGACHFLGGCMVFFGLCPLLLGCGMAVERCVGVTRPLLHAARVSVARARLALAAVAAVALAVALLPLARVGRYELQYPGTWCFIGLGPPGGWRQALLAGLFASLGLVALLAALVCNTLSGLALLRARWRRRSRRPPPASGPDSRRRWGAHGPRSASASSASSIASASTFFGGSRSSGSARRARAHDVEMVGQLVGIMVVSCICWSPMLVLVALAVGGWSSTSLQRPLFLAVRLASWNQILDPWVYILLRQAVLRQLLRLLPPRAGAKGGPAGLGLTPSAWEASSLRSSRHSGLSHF

[25] = biological target: T3, Prostaglandin E2 receptor EP1 subtype; assay: Inhibition of human recombinant EP1 receptor expressed in CHO cells by calcium mobilisation assay; format: functional, cell-based
[26] = Intrinsic clearance in monkey liver microsomes; format: ADME, Macaca mulatta, Microsome; conditions: rhesus monkey
[27] = Ratio of drug level in brain to blood in rat FCA model of inflammatory pain at 30 mg/kg, po after 8 hrs; format: ADME, organism-based; set-up: dose 30 mg/kg, route oral; conditions: brain and blood
[28] = biological target: T4, Prostaglandin E2 receptor EP4 subtype (Homo sapiens, UniProt P35408); assay: Inhibition of human EP4 recombinant receptor expressed in CHO cells by cAMP mobilisation assay; format: functional, cell-based
[29] = Ratio of drug level in brain to blood in rat FCA model of inflammatory pain at 30 mg/kg, po after 0.25 hrs; format: ADME, organism-based; set-up: dose 30 mg/kg, route oral; conditions: brain and blood
[30] = Cmax in rat at 3 mg/kg, po; format: ADME, organism-based; set-up: dose 3 mg/kg, route oral; conditions: in vivo
[31] = Drug level in blood of rat FCA model of inflammatory pain at 30 mg/kg, po after 6 hrs; format: ADME, organism-based; set-up: dose 30 mg/kg, route oral; conditions: read-out: Drug uptake
[32] = biological target: Prostaglandin E2 receptor EP2 subtype (Homo sapiens, UniProt P43116); assay: Inhibition of human recombinant EP2 receptor expressed in CHO cells […] by calcium mobilisation assay; format: functional, cell-based
[33] = biological target: T4, Prostaglandin E2 receptor EP4 subtype; assay: Binding affinity to human EP4 receptor expressed in CHO cells; format: cell-based
[34] = Drug level in brain of rat FCA model of inflammatory pain at 30 mg/kg, po after 2 hrs; format: ADME, organism-based; set-up: dose 30 mg/kg, route oral; conditions: read-out: Drug uptake
[35] = Ratio of drug level in brain to blood in rat FCA model of inflammatory pain at 30 mg/kg, po after 4 hrs; format: ADME, organism-based; set-up: dose 30 mg/kg, route oral; conditions: brain and blood
[36] = Ratio of drug level in brain to blood in rat FCA model of inflammatory pain at 30 mg/kg, po after 24 hrs; format: ADME, organism-based; set-up: dose 30 mg/kg, route oral; conditions: brain and blood
[37] = Drug level in blood of rat FCA model of inflammatory pain at 30 mg/kg, po after 2 hrs; format: ADME, organism-based; set-up: dose 30 mg/kg, route oral; conditions: read-out: Drug uptake
[38] = Volume of distribution in rat at 1 mg/kg, iv or 3 mg/kg, po; format: ADME, organism-based; conditions: in vivo, read-out: Vss

T4 sequence (P35408 whole entry): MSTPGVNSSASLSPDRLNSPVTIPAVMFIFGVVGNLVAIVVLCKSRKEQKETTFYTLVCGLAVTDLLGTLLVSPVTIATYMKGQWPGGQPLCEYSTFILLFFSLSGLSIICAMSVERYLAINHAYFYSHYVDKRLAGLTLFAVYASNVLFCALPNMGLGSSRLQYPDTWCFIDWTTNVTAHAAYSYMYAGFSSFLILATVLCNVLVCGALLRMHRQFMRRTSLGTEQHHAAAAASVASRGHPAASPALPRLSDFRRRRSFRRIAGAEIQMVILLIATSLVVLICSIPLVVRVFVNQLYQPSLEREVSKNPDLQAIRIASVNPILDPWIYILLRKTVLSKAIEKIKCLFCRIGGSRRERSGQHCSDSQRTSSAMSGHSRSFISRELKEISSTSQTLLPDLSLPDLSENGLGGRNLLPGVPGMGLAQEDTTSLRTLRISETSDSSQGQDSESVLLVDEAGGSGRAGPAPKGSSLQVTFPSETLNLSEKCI
Prostacyclin receptor, sequence (P43119 whole entry): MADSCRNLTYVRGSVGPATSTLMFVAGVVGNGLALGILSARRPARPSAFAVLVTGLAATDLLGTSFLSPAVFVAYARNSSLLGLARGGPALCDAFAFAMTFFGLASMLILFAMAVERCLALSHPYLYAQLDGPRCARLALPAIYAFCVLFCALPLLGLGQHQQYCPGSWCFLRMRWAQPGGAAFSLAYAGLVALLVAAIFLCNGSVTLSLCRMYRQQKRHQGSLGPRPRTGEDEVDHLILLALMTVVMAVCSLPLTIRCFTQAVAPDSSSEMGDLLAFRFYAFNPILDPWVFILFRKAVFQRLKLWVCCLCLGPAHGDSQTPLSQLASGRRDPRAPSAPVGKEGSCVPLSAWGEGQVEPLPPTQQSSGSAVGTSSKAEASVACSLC
Prostaglandin E2 receptor EP2 subtype, sequence (P43116 whole entry): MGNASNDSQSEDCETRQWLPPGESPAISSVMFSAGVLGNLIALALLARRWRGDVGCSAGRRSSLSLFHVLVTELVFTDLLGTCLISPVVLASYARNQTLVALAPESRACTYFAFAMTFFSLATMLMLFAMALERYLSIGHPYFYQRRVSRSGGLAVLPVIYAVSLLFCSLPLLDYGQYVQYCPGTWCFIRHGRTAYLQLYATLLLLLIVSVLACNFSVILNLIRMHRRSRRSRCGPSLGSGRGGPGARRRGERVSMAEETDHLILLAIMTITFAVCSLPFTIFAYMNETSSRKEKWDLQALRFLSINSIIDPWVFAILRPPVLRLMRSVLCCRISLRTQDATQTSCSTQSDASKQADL
Prostaglandin F2-alpha receptor, sequence (P43088 whole entry): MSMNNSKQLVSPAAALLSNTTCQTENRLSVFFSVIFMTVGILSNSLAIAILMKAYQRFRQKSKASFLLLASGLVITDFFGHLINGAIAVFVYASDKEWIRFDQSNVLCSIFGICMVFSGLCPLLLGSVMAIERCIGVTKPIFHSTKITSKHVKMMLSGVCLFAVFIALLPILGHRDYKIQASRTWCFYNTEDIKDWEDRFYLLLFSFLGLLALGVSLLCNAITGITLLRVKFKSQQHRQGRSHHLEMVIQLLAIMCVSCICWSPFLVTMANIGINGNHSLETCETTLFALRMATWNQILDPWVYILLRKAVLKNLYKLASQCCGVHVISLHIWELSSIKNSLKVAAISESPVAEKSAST

SMILES: Cc1ccc(-n2c(C)ccc2-c2cc(Cl)ccc2OCc2ccc(F)cc2)cc1C(=O)O
concentration at 4 h [1]: 1220 nM
bioavailability [2]: 45%
concentration at 4 h [3]: 3560 nM
Kp at 6 h [4]: 0.4
concentration at 0.25 h [5]: 7360 nM
ED50 (Rattus norvegicus [6]): 2.5 mg/kg
Kp at 2 h [7]: 0.4
half-life [8]: 276 min
concentration at 1 h [9]: 10100 nM
concentration at 6 h [10]: 913 nM
IC50 (Prostacyclin receptor): > 3160 nM
concentration at 8 h [11]: 753 nM
IC50 [12]: > 3160 nM
Ki [13]: 501 nM
AUC/dose (Rattus norvegicus [14]): 18 kg·min/L
Tmax [15]: 30 min
clearance [16]: 22 mL/min/kg
concentration at 1 h [17]: 3560 nM
concentration at 24 h [18]: 31 nM
concentration at 8 h [19]: 1600 nM
IC50 (Thromboxane A2 receptor): 39.8 nM
Ki (Thromboxane A2 receptor): 15.8 nM
concentration at 0.25 h [20]: 2600 nM
CL (Liver microsomes): <= 3.6 ml/min/g
CL [21]: <= 3.6 ml/min/g
Activity (Rattus norvegicus [22]): 75%
Kp at 1 h [23]: 0.4
IC50 [24]: 5.01 nM
Ki [25]: 1 nM
CL [26]: <= 3.6 ml/min/g
Kp at 8 h [27]: 0.4
Ki [28]: 6310 nM
Kp at 0.25 h [29]: 0.4
Cmax [30]: 590 nM
concentration at 6 h [31]: 2310 nM
IC50 [32]: > 3160 nM
IC50 [33]: 15800 nM
Ki [33]: 7940 nM
concentration at 2 h [34]: 2480 nM
Kp at 4 h [35]: 0.4
Kp at 24 h [36]: 0.5
concentration at 2 h [37]: 5930 nM
Vd [38]: 2.6 L/kg

SMILES: Cc1ccc(OCc2ccc(F)cc2)c(-c2ccc(C)n2-c2cc(C(=O)O)c3ccccc3c2)c1
IC50 [24]: 79.4 nM

SMILES: Cc1ccc(-c2cc(Br)ccc2OCc2ccc(F)cc2F)n1-c1ccc(OC(F)F)c(C(=O)O)c1
IC50 [24]: 0.631 nM

SMILES: CC(=O)Nc1ccc(-n2c(C)ccc2-c2cc(Br)ccc2OCc2ccc(F)cc2F)cc1C(=O)O
IC50 [24]: 0.398 nM

SMILES: Cc1c(N)cc(-n2c(C)ccc2-c2cc(Br)ccc2OCc2ccccc2)cc1C(=O)O
IC50 [24]: 3.16 nM

SMILES: Cc1ccc(-c2cc(C(F)(F)F)ccc2OCc2ccc(F)cc2)n1-c1ccc(F)c(C(=O)O)c1
IC50 [24]: 7.94 nM

SMILES: Cc1ccc(OCc2ccc(F)cc2)c(-c2ccc(C)n2-c2cc(N)c(C)c(C(=O)O)c2)c1
IC50 [24]: 15.8 nM

SMILES: Cc1ccc(-c2cc(Br)ccc2OCc2ccccc2)n1-c1cc(C(=O)O)c2ccccc2c1
IC50 [24]: 12.6 nM

SMILES: Cc1ccc(-c2cc(Br)ccc2OCc2ccc(F)cc2F)n1-c1ccc(O)c(C(=O)O)c1
IC50 [24]: 2 nM

SMILES: Cc1ccc(-c2cc(F)ccc2OCc2ccc(F)cc2)n1-c1cc(C(=O)O)c2ccccc2c1
IC50 [24]: 25.1 nM

Continued by falling IC50 [24], values first:

IC50 [24]: 5.01 nM
SMILES: Cc1ccc(-c2cc(Br)ccc2OCc2ccccc2)n1-c1ccc(OC(F)F)c(C(=O)O)c1

IC50 [24]: 2.51 nM
SMILES: Cc1ccc(-n2c(C)ccc2-c2cc(Cl)ccc2OCc2ccc(F)cc2F)cc1C(=O)O

IC50 [24]: 2.51 nM
SMILES: Cc1ccc(-c2cc(Br)ccc2OCc2ccc(F)cc2F)n1-c1cc(C(=O)O)c2ccccc2c1

AUC/dose (Rattus norvegicus [14]): 39 kg·min/L
Tmax [15]: 30 min
IC50 [24]: 2 nM
Cmax [30]: 2940 nM
SMILES: Cc1c(N)cc(-n2c(C)ccc2-c2cc(Cl)ccc2OCc2ccccc2)cc1C(=O)O
Activity (Rattus norvegicus [22]): 35%

IC50 [24]: 1.26 nM
SMILES: Cc1ccc(-n2c(C)ccc2-c2cc(Br)ccc2OCc2ccc(F)cc2F)cc1C(=O)O
